Reference: US10793568B2, “Hormone receptor modulators for treating metabolic conditions and disorders” (ARDELYX, INC., priority 2016, dated 2020)
Where two headings read alike, the source gives them in different places.

How the values were obtained:
[1] = target: ligand binding domain of human FXR (Homo sapiens (Human), UniProt Q96RI1); test: FXR ligand binding assay (LanthaScreen TR-FRET, SRC2-2 peptide recruitment); conditions: for pEC50: -log EC50, concentration required to produce 50% activation; for Emax: read-out: % Efficacy
ligand binding domain of human FXR, sequence (Q96RI1 262-486): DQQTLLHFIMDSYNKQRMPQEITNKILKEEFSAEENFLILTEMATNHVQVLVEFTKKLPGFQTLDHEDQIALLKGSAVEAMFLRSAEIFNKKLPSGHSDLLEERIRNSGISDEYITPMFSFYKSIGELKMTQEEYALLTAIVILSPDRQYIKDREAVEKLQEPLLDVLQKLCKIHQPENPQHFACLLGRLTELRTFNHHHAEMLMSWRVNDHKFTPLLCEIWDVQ

[2] = target: human Farnesoid X receptor ligand-binding domain/Gal4 DNA binding domain chimera (Homo sapiens (Human), UniProt Q96RI1); test: Cell-based assay of FXR activation (FXR-UAS-bla HEK 293T beta-lactamase reporter); conditions: cellular FXR beta-lactamase reporter assay; for Emax: HEK-293T, extent of activation relative to GW4064, read-out: % Efficacy; for EC50: FXR-UAS-bla HEK 293T cells, 16 h, pEC50 = -log EC50
human Farnesoid X receptor ligand-binding domain/Gal4 DNA binding domain chimera, sequence (Q96RI1 262-486, change not shown): as the sequence (Q96RI1 262-486) above
human Farnesoid X receptor ligand-binding domain/Gal4 DNA binding domain chimera, sequence (P04386 1-147 partner): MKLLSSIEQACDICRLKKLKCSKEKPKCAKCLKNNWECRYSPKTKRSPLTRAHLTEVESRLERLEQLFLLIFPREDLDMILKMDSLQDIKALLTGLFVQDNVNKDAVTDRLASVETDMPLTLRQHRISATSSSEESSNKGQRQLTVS
How it was run: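 HEK 293T cells stably expressing a Gal4-fused human FXR LBD and a UAS-driven beta-lactamase reporter were incubated with serially diluted compounds for 16 h at 37 °C in phenol red-free DMEM with 2% charcoal-stripped FBS. CCF4 FRET read-out: excitation 409 nm, emission 447 nm. pEC50 comes from a 3-parameter logistic fit, and efficacy is given as % of GW4064.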

[3] = extent of activation relative to GW4064

Row | Compound | pEC50 [1] | Emax [1] [%] | Emax [2] [%] | EC50 [2] [nM] | Emax [1, 3] [%]
1 | Cc1cccc(Cl)c1-c1noc(C2(F)CC2)c1CO[C@@H]1C[C@@H]2C[C@H]1CN2c1ccc(C(=O)O)c(F)c1 [Compound I-124, 4-[(1S,4S,5R)-5-{[3-(2-chloro-6-methylphenyl)-5-(1-fluorocyclopropyl)-1,2-oxazol-4-yl]methoxy}-2-azabicyclo[2.2.1]heptan-2-yl]-2-fluorobenzoic Acid] | 9.7 | 143 | 105 | 3.98 | 
2 | O=C(O)c1ccc(N2C[C@@H]3C[C@H]2C[C@H]3OCc2c(C3CCC4(CC3)CC4)noc2C2CC2)cc1 [Compound I-125, 4-[(1S,4S,5R)-5-[(5-cyclopropyl-3-{spiro[2.5]octan-6-yl}-1,2-oxazol-4-yl)methoxy]-2-azabicyclo[2.2.1]heptan-2-yl]benzoic Acid] |  | 92 | 106 | 251 | 
3 | O=C(O)c1ccc(N2C[C@@H]3C[C@H]2C[C@H]3OCc2c(C3CCC4(CC3)CC4)noc2C2CC2)c(F)c1 [Compound I-126, 4-[(1S,4S,5R)-5-[(5-cyclopropyl-3-{spiro[2.5]octan-6-yl}-1,2-oxazol-4-yl)methoxy]-2-azabicyclo[2.2.1]heptan-2-yl]-3-fluorobenzoic Acid] |  | 114 | 106 | 39.8 | 
4 | O=C(O)c1ccc([N+]2([O-])C[C@@H]3C[C@H]2C[C@H]3OCc2c(-c3c(Cl)cccc3Cl)noc2C2CC2)cc1 (stereo partly drawn) [Compound I-127, (1S,4S,5R)-2-(4-carboxyphenyl)-5-{[5-cyclopropyl-3-(2,6-dichlorophenyl)-1,2-oxazol-4-yl]methoxy}-2-azabicyclo[2.2.1]heptan-2-ium-2-olate] | 9.3 |  | 104 | 2.51 | 136
5 | O=C(O)c1ccc(N2C[C@@H]3C[C@H]2C[C@H]3OCc2c(-c3c(Cl)cccc3Cl)noc2C2CC2)cn1 [Compound I-128, 5-[(1S,4S,5R)-5-{[5-cyclopropyl-3-(2,6-dichlorophenyl)-1,2-oxazol-4-yl]methoxy}-2-azabicyclo[2.2.1]heptan-2-yl]pyridine-2-carboxylic Acid] | 7.8 |  | 93 | 10 | 110
6 | O=C(O)c1cnc(N2C[C@@H]3C[C@H]2C[C@H]3OCc2c(-c3c(Cl)cccc3Cl)noc2C2CC2)c(F)c1 [Compound I-129, 6-[(1S,4S,5R)-5-{[5-cyclopropyl-3-(2,6-dichlorophenyl)-1,2-oxazol-4-yl]methoxy}-2-azabicyclo[2.2.1]heptan-2-yl]-5-fluoropyridine-3-carboxylic Acid] |  |  | 101 | 3.98 | 152
7 | O=C(O)c1cnc(N2C[C@@H]3C[C@H]2C[C@H]3OCc2c(-c3c(Cl)cccc3Cl)noc2C2(F)CC2)c(F)c1 [Compound I-130, 6-[(1S,4S,5R)-5-{[3-(2,6-dichlorophenyl)-5-(1-fluorocyclopropyl)-1,2-oxazol-4-yl]methoxy}-2-azabicyclo[2.2.1]heptan-2-yl]-5-fluoropyridine-3-carboxylic Acid] | 8 |  | 99 | 7.94 | 152
8 | O=C(O)c1ccc(N2C[C@H]3C[C@@H]2C[C@@H]3OCc2c(-c3c(Cl)cccc3Cl)noc2C2CC2)c(F)c1 [Compound I-131, 4-[(1R,4R,5S)-5-{[5-cyclopropyl-3-(2,6-dichlorophenyl)-1,2-oxazol-4-yl]methoxy}-2-azabicyclo[2.2.1]heptan-2-yl]-3-fluorobenzoic Acid] |  | 108 | 94 | 31.6 | 
9 | O=C(O)c1ccc(N2C[C@H]3C[C@@H]2C[C@@H]3OCc2c(-c3c(Cl)cccc3Cl)noc2C2CC2)cc1 [Compound I-132] |  |  |  | < 316 | 98
10 | N#Cc1c(F)cc(N2C[C@@H]3C[C@H]2C[C@H]3OCc2c(-c3c(Cl)cccc3Cl)noc2C2CC2)cc1F [Compound I-133, 4-[(1S,4S,5R)-5-{[5-cyclopropyl-3-(2,6-dichlorophenyl)-1,2-oxazol-4-yl]methoxy}-2-azabicyclo[2.2.1]heptan-2-yl]-2,6-difluorobenzonitrile] | 7.4 |  | 106 | < 39.8 | 79
11 | Fc1cc(-c2nn[nH]n2)ccc1N1C[C@@H]2C[C@H]1C[C@H]2OCc1c(-c2c(Cl)cccc2Cl)noc1C1CC1 [Compound I-134, (1S,4S,5R)-5-{[5-cyclopropyl-3-(2,6-dichlorophenyl)-1,2-oxazol-4-yl]methoxy}-2-[2-fluoro-4-(2H-1,2,3,4-tetrazol-5-yl)phenyl]-2-azabicyclo[2.2.1]heptane] | 8.2 |  | 104 | 0.794 | 156
12 | O=C1NCc2cc(N3C[C@@H]4C[C@H]3C[C@H]4OCc3c(-c4c(Cl)cccc4Cl)noc3C3CC3)ccc21 [Compound I-135, 5-[(1S,4S,5R)-5-{[5-cyclopropyl-3-(2,6-dichlorophenyl)-1,2-oxazol-4-yl]methoxy}-2-azabicyclo[2.2.1]heptan-2-yl]-2,3-dihydro-1H-isoindol-1-one] | 9.4 |  | 102 | 1 | 152
13 | O=C1NCCc2cc(N3C[C@@H]4C[C@H]3C[C@H]4OCc3c(-c4c(Cl)cccc4Cl)noc3C3CC3)ccc21 [Compound I-136, 6-[(1S,4S,5R)-5-{[5-cyclopropyl-3-(2,6-dichlorophenyl)-1,2-oxazol-4-yl]methoxy}-2-azabicyclo[2.2.1]heptan-2-yl]-1,2,3,4-tetrahydroisoquinolin-1-one] | 9 | 154 | 114 | 3.98 | 
14 | O=c1[nH]c2cc(N3C[C@@H]4C[C@H]3C[C@H]4OCc3c(-c4c(Cl)cccc4Cl)noc3C3CC3)ccc2o1 [Compound I-140, 5-[(1S,4S,5R)-5-{[5-cyclopropyl-3-(2,6-dichlorophenyl)-1,2-oxazol-4-yl]methoxy}-2-azabicyclo[2.2.1]heptan-2-yl]-2,3-dihydro-1,3-benzoxazol-2-one] | 9.1 |  | 121 | 20 | 142
15 | O=C1OCc2cc(N3C[C@@H]4C[C@H]3C[C@H]4OCc3c(-c4c(Cl)cccc4Cl)noc3C3CC3)ccc21 [Compound I-141, 5-[(1S,4S,5R)-5-{[5-cyclopropyl-3-(2,6-dichlorophenyl)-1,2-oxazol-4-yl]methoxy}-2-azabicyclo[2.2.1]heptan-2-yl]-1,3-dihydro-2-benzofuran-1-one] | 7 |  | 106 | 63.1 | 137
16 | O=C(c1ccc(N2C[C@@H]3C[C@H]2C[C@H]3OCc2c(-c3c(Cl)cccc3Cl)noc2C2CC2)cc1)C(F)(F)F [Compound I-142, 1-{4-[(1S,4S,5R)-5-{[5-cyclopropyl-3-(2,6-dichlorophenyl)-1,2-oxazol-4-yl]methoxy}-2-azabicyclo[2.2.1]heptan-2-yl]phenyl}-2,2,2-trifluoroethan-1-one] | 7.8 |  | 104 | 20 | 78
17 | CN(CC(=O)O)S(=O)(=O)c1ccc(N2C[C@@H]3C[C@H]2C[C@H]3OCc2c(-c3c(Cl)cccc3Cl)noc2C2CC2)cc1 [Compound I-143, 2-{N-methyl4-[(1S,4S,5R)-5-{[5-cyclopropyl-3-(2,6-dichlorophenyl)-1,2-oxazol-4-yl]methoxy}-2-azabicyclo[2.2.1]heptan-2-yl]benzenesulfonamido}acetic Acid] | 8 |  | 105 | 1 | 132
18 | O=S(=O)(O)c1ccc(N2C[C@@H]3C[C@H]2C[C@H]3OCc2c(-c3c(Cl)cccc3Cl)noc2C2CC2)cc1 [Compound I-144, 4-[(1S,4S,5R)-5-{[5-cyclopropyl-3-(2,6-dichlorophenyl)-1,2-oxazol-4-yl]methoxy}-2-azabicyclo[2.2.1]heptan-2-yl]benzene-1-sulfonic Acid] | 8.2 |  |  | < 31.6 | 128
19 | O=C(O)c1cnc(N2C[C@@H]3C[C@H]2C[C@H]3OCc2c(-c3c(Cl)cccc3Cl)noc2C2CC2)nc1 [Compound I-145, 2-[(1S,4S,5R)-5-{[5-cyclopropyl-3-(2,6-dichlorophenyl)-1,2-oxazol-4-yl]methoxy}-2-azabicyclo[2.2.1]heptan-2-yl]pyrimidine-5-carboxylic Acid] | 8 |  | 108 | 63.1 | 118
20 | O=C(O)Cc1ccc(N2C[C@@H]3C[C@H]2C[C@H]3OCc2c(-c3c(Cl)cccc3Cl)noc2C2CC2)cc1 [Compound I-146, 2-{4-[(1S,4S,5R)-5-{[5-cyclopropyl-3-(2,6-dichlorophenyl)-1,2-oxazol-4-yl]methoxy}-2-azabicyclo[2.2.1]heptan-2-yl]phenyl}acetic Acid] | 7.9 |  | 101 | 7.94 | 134
21 | O=C(O)CCc1ccc(N2C[C@@H]3C[C@H]2C[C@H]3OCc2c(-c3c(Cl)cccc3Cl)noc2C2CC2)cc1 [Compound I-147, 3-{4-[(1S,4S,5R)-5-{[5-cyclopropyl-3-(2,6-dichlorophenyl)-1,2-oxazol-4-yl]methoxy}-2-azabicyclo[2.2.1]heptan-2-yl]phenyl}propanoic Acid] | 8.1 | 142 | 112 | 0.631 | 
22 | O=C(O)CCCc1ccc(N2C[C@@H]3C[C@H]2C[C@H]3OCc2c(-c3c(Cl)cccc3Cl)noc2C2CC2)cc1 [Compound I-148, 4-{4-[(1S,4S,5R)-5-{[5-cyclopropyl-3-(2,6-dichlorophenyl)-1,2-oxazol-4-yl]methoxy}-2-azabicyclo[2.2.1]heptan-2-yl]phenyl}butanoic Acid] | 7.8 |  | 117 | 20 | 136
